Measured values reported in publication PMC6591251, “Discovery of potent necroptosis inhibitors targeting RIPK1 kinase activity for the treatment of inflammatory disorder and cancer metastasis” (Cell Death & Disease, 2019).
Values belong to the compound of their own block, whether it stands above or below them.

Assays:
human cells = system: human cells; design: method as in PMID 27551444, PMID 28151659; conditions: cited from earlier work
mouse and rat = system: mouse and rat; design: method as in PMID 27551444, PMID 28151659; conditions: cited from earlier work
[1] = system: B16-F10 or RFP-LL/2 cells; assay: Proliferation rate and invasion ability without endothelial monolayer; assay type: cell-based, mouse; conditions: B16-F10 or RFP-LL/2, in vitro
Procedure: Studies have shown that RIPK1 kinase activity is involved in the promotion of tumor metastasis through death receptor 6-dependent necroptosis of endothelial cells[22] or VEGF-dependent activation of vascular permeability. We thus evaluated the therapeutic effect of PK68 on lung metastasis of mouse melanoma B16-F10 cells in vivo. […] After 2 weeks, the metastasis of B16-F10 cells was measured by histological analysis and assessed as the number of metastasis nodules in the lung. […] Two weeks after intravenous injection of RFP-LL/2 cells, RFP^+ LL/2 cells were isolated from the tumor tissues by flow cytometer sorting and no signal of phosphorylated RIPK1 was detected in these tumors cells (Supplementary Fig. 22). Six hours after intravenous injection of RFP-LL/2 cells into C57BL/6 mice, the RFP-LL/2 cells have extravasated through blood vessels into the lung (Supplementary Fig. 23). […] Further, we evaluated the effect of PK68 on the tumor cell transmigration across the cultured endothelium. We isolated CD31^+ endothelial cells from the lungs and performed the transendothelial migration assay as previously reported. […]
(A-B) B16-F10 and RFP-LL/2 cells were pretreated with indicated compounds for 1h and then cell viability was measured by cell Titer-Glo. (C) B16-F10 and RFP-LL/2 cells were pre-treated with indicated compounds and invasion ability was measured by the transwell assay.

HT-29 cells = assay: TNF-induced necroptosis (TNFα/Smac mimetic/z-VAD), cell viability by ATP levels; assay type: cell-based, human; conditions: Homo sapiens, HT-29, 48 h, T/S/Z 48 h, read-out: EC50(nM) HT-29
Procedure: (§1) Necroptosis is tightly regulated by RIP kinases including RIPK1 and RIPK3. To develop new necroptosis inhibitors, we screened a small-molecule library of around 240 potential kinase inhibitors that were designed with novel structures to affect the ATP-binding pocket of protein kinases. Human colon cancer HT-29 cells were treated with these compounds for […], followed by treatment with necroptotic stimuli (TNFα, Smac mimetic, and z-VAD) that are known to activate TNF-mediated necroptosis. After 48 h, cell viability was analyzed by monitoring ATP levels.
(§2) Fig. 1 PK6 efficiently blocks TNF-α induced necroptosis in both human and mouse cells. a HT-29 cells cultured in 96-well plates were pretreated with the indicated compounds (10 μM) from a library consisting of ~240 compounds that we designed with novel structures for 1 h and subsequently treated with 40 ng/ml TNF-α (T), 100 nM Smac mimetic (S), and the caspase inhibitor 20 μM z-VAD(Z) for 48 h. Cell viability was assessed by measuring ATP levels. Data are represented as the mean ± standard deviation of duplicates. b Chemical structure of PK6. c Dose response curve and EC50 ± SD value for PK6 in TNF-α induced necroptosis in HT-29 cells. Cells were pretreated with indicated concentrations of PK6 for 1 h prior to the treatment with T (40 ng/ml), S (100 nM), and Z (20 μM) for 48 h. Cell viability was assessed by measuring ATP levels. d U937 cells were pretreated with indicated concentrations of PK6 for 1 h followed by the treatment with T (40 ng/ml), S (100 nM), and Z (20 μM) for 24 h. e MEF cells were pretreated with indicated concentrations of PK6 for 1 h followed by the treatment with T (40 ng/ml), S (100 nM), and Z (20 μM) for 24 h. f L929 cells were pretreated with indicated concentrations of PK6 for 1 h prior to the treatment with S (100 nM) and Z (20 μM) for 24 h.
(§3) Fig. 2 Chemical optimization of PK6 leads to improvements in anti-necroptotic activity. a, b The effects of the indicated compounds on cell viability were examined in HT-29 cells (a) and L929 cells (b). HT-29 cells were treated as indicate for 48 h and L929 cells for 24 h. Cell viability was assessed by measuring ATP levels. Data are represented as the mean ± standard deviation of triplicates. c Structure and EC50 ± SD value of each compound are shown in the table. EC50 values are the average of at least two independent determinations. d Lead optimization of PK6 TEXT PRINTED IN THE PICTURE: (c) PK6: EC50(nM) HT-29: 1200±53; EC50(nM) L929: 760±26 | (c) PK67: EC50(nM) HT-29: 250±6.3; EC50(nM) L929: 130±6.8 | (c) PK81: EC50(nM) HT-29: 120±7.6; EC50(nM) L929: 20±0.98 | (c) PK84: EC50(nM) HT-29: 97±6.7; EC50(nM) L929: 45±2.1 | (c) PK93: EC50(nM) HT-29: 130±36; EC50(nM) L929: 30±7.4 | (c) PK86: EC50(nM) HT-29: 73±3.9; EC50(nM) L929: 15±1.0 | (c) PK68: EC50(nM) HT-29: 23±1.4; EC50(nM) L929: 13±0.85
(§4) The cell viability was analyzed by using the CellTiter-Glo Luminescent Cell Viability Assay kit following the manufacturer’s instructions (Promega). Luminescence was measured with SpectraMax i3x (Molecular Devices).

L929 cells = assay: TNF-induced necroptosis, cell viability by ATP levels; assay type: cell-based; conditions: Mus musculus, L929, 24 h, read-out: EC50(nM) L929
Procedure: as §1, §2, §3, §4

NIH3T3-RIPK3 cells = assay: RIPK3 dimerization-induced necroptosis (AP20187); assay type: cell-based, mouse; conditions: AP20187 100 nM, 24 h
Procedure: (§5) Recombinant proteins were incubated with PK6 and PK68 as indicated. […] NIH3T3-RIPK3 cells were pretreated with indicated compounds for 1 h and subsequently treated with T (40 ng/ml)/S (100 nM)/Z (20 μM) or AP20187 (100 nM) for 24 h. Cell viability was determined by measuring ATP levels. e PK6 and PK68 have no effect on MLKL dimerization-induced cell death in HeLa-MLKL (1–190) cells that stably express MLKL (1–190aa) fused to DmrB. HeLa-MLKL (1–190) cells were pretreated with indicated compounds for 1 h and subsequently treated with AP20187 (100 nM) for 24 h. Cell viability was determined by measuring ATP levels.
(§6) Further, we evaluated the selectivity of PK68 against a panel of 369 kinases provided by Reaction Biology (at 1000 nM). […] In addition, we followed on some of the active “hits” from the kinome scan. PK68 was tested against TNIK and TRKA by a reputable CRO company. […] RIPK1 is known to mediate NF-κB activation independently of its kinase activity. […] It has been shown that homodimerization of RIPK3 or MLKL induced by the dimerizer leads to necroptosis bypassing the upstream signals[10],[37]. […] This dimerized RIPK3-induced necroptosis was blocked by RIPK3 inhibitor GSK873 but was not blocked by the RIPK1 inhibitor necrostatin-1. […] (Fig. 4e).
as §4

HeLa-MLKL (1–190) cells = assay: MLKL dimerization-induced cell death (AP20187); assay type: cell-based, human; conditions: AP20187 100 nM, 24 h
Procedure: as §5, §6, §4

SMILES: CC(C)(C)C(=O)N1N=CC[C@H]1c1ccccc1 [GSK963]
potency in human cells (human cells): extremely potent
cellular efficacy in mouse and rat (mouse and rat): highly reduced cellular efficacy

SMILES: CN1C(=O)[C@@H](NC(=O)c2n[nH]c(Cc3ccccc3)n2)COc2ccccc21 [GSK2982772]
potency in human cells (human cells): extremely potent
cellular efficacy in mouse and rat (mouse and rat): highly reduced cellular efficacy

SMILES: CN1C(=O)NC(Cc2c[nH]c3c(Cl)cccc23)C1=O (stereo not drawn) [Nec-1s, 7-Cl-O-Nec-1, reference compound]
proliferation rate and invasion ability [1]: no obvious influence

SMILES: CC(=O)Nc1nc2ccc(-c3cnc(C)c(NC(=O)CC4CCCCC4)c3)cc2s1 [PK67, N-(5-(2-acetamidobenzo[d]thiazol-6-yl)-2-methylpyridin-3-yl)-2-cyclohexylacetamide]
EC50 (HT-29 cells): 250 nM
EC50 (L929 cells): 130 nM

melting point: 246 to 247 °C (dec.)
SMILES: CC(=O)Nc1nc2ccc(-c3cnc(C)c(NC(=O)OC4CCCC4)c3)cc2s1 [PK81, cyclopentyl (5-(2-acetamidobenzo[d]thiazol-6-yl)-2-methylpyridin-3-yl)carbamate]
EC50 (HT-29 cells): 120 ± 7.6 nM
EC50 (L929 cells): 20 ± 0.98 nM

melting point: 268 to 269 °C (dec.)
SMILES: CC(=O)Nc1cn2cc(-c3cnc(C)c(NC(=O)OC4CCCCC4)c3)ccc2n1 [PK84, cyclohexyl (5-(2-acetamidoimidazo[1,2-a]pyridin-6-yl)-2-methylpyridin-3-yl)carbamate]
EC50 (HT-29 cells): 97 ± 6.7 nM
EC50 (L929 cells): 45 ± 2.1 nM

melting point: 227 to 228 °C
SMILES: CC(=O)Nc1nc2ccc(-c3cc(NC(=O)OC4CCCCC4)c(C)cn3)cc2s1 [PK86, cyclohexyl (2-(2-acetamidobenzo[d]thiazol-6-yl)-5-methylpyridin-4-yl)carbamate]
EC50 (HT-29 cells): 73 ± 3.9 nM
EC50 (L929 cells): 15 ± 1 nM

melting point: 230 to 231 °C (dec.)
SMILES: CC(=O)Nc1nc2ccc(-c3cnc(C)c(NC(=O)OC4CCCCC4)c3)nc2s1 [PK93, cyclohexyl (5-(2-acetamidothiazolo[5,4-b]pyridin-5-yl)-2-methylpyridin-3-yl)carbamate]
EC50 (HT-29 cells): 130 ± 36 nM
EC50 (L929 cells): 30 ± 7.4 nM

SMILES: CN1C(=O)C(Cc2c[nH]c3ccccc23)NC1=S (stereo not drawn) [necrostatin-1, Necrostatin-1, reference compound]
RIPK3 dimerization-induced necroptosis (NIH3T3-RIPK3 cells): not blocked

SMILES: COc1nccnc1NS(=O)(=O)c1ccc(NC(=O)/C=C/c2ccc([N+](=O)[O-])s2)cc1 [necrosulfonamide, reference compound]
polymerized MLKL-induced necroptosis (HeLa-MLKL (1–190) cells): effectively suppressed
